Assay results as given in patent publication US4921873A, “Antiviral and antitumor cyclohexadienone compositions” (Harbor Branch Oceanographic Institution, Inc., priority 1985, dated 1990).

Experiments:
cells = test: Zone of cytotoxicity in antiviral disk assay; format: cell-based; conditions: read at Day 5
Experimental: The following assay method was utilized to illustrate the antiviral effectiveness of the compound of Formula II.
(11) For assay, add 1×10^6 cells to each well (6 wells per culture dish). Bring each well to 2 ml with fresh medium.
(4) Add 2 ml MC-4000 to each well.
(5) Place disks on surface and push through (1 mg/disc, 0.5 mg/disc, 0.25 mg/disc, etc. for crude extracts).
(1) Add 2 ml neutral red medium.

[1] = test system: L-1210 murine leukemia cells; test: L-1210 mouse leukemia cell cytotoxicity assay; format: cell-based; conditions: L-1210, at 200 μg/ml, in vitro
Experimental: The following assay method was utilized to illustrate the antitumor effectiveness of the compounds of formulas II, IV, V, VI and VII.
L1210 And P388 MOUSE LEUKEMIA CELL CYTOXICITY ASSAY 24-WELL PLATE SCREENING ASSAY AND TUBE ASSAY PROTOCOL
Media--Dulbeccos with glucose and pyruvate (Biologos, Inc) with 10% horse serum, (Biologos, Inc) and 1.0 μg/ml gentamicin (Gibco). Cells--L1210 and P-388 mouse leukemia cells (American Type Culture Collection) in media at a concentration of 5×10^4 cells/ml. Sterile 24-well culture plates (Nunc) for screening or 12×75 mm glass culture tubes (Becton-Dickinson) for tube assay. Microdispenser with 1 to 5 μl increments (Drummond Scientific Co. Broomall Pa). Finnpipette with […] and Finnpipette with 50 to 200 μl increments.
1. A sample of the composition to be assayed is added to each well or tube in an amount of from 200 μg/ml and 100 μg/ml for screening. For DDC of known active compounds use log concentrations from 100 μg/ml to 0.01 μg/ml for range-finding assay; when range has been determined, use five concentrations between highest and lowest active concentrations.
2. Add 2.0 ml of 5×10^4 cell suspension in media to each well or tube. Tubes are loosely covered with parafilm.
3. Incubate in 5% CO2 incubator 48 hours.
4. Visually read plates with inverted microscope, comparing with solvent control. Assign activity as follows: […]

HSV-I = HSV-I plaque inhibition disk assay (antiviral effectiveness); format: cell-based, herpes simplex-I; design: key to inhibition of plaque formation: +++: complete inhibition; ++: a few plaques around the outside of well; +: definite inhibition; +/-: questionable inhibition; -: no inhibition
Experimental: The following assay method was utilized to illustrate the antiviral effectiveness of the compound of Formula II. (1) Remove 75 cm^2 culture flasks from incubator (these were plated the previous week). (11) For assay, add 1×10^6 cells to each well (6 wells per culture dish). Bring each well to 2 ml with fresh medium. (1) Aspirate medium. (2) Add 0.5 of medium containing 200 pfu HSV-I. (3) Incubate […] with a small amount of shaking. (4) Add 2 ml MC-4000 to each well. (5) Place disks on surface and push through (1 mg/disc, 0.5 mg/disc, 0.25 mg/disc, etc. for crude extracts). (6) Incubate 48 hr. (making sure dishes remain level). Day 4: (1) Add 2 ml neutral red medium. (2) Incubate overnight.

[2] = Stability of isolated alcohol derivative at room temperature; format: physicochemical

In the case of `CC(=O)OCC(Cl)C1=CC(C)(C)C=CC1=O` (stereo not drawn) [Formula II], the “zone of cytotoxicity (diameter)” value (cells) is reported as 16 mm, the viability at 200 µg/mL ([1]; Mus musculus, L1210, 48 h, read-out: survival) is reported as 100% and the “inhibition of plaque formation” value (HSV-I; 200 pfu, read at Day 5) is reported as “++”. For the same molecule, the antiviral activity (HSV-I; results at Day 5, in words) was “definite antiviral activity”.

With `CC1(C)C=CC(=O)C(C(Cl)CO)=C1` (stereo not drawn) [Formula VIII] the decomposition time [2] was “two”.

In the case of `CC1(C)C=CC(=O)C(C2CO2)=C1` (stereo not drawn) [Formula VII], the survival ([1]; 48 hours, 2880 min) is reported as 28%.
